Legend:
[1] = molecular target: T1, 5-hydroxytryptamine receptor 2C (Homo sapiens, UniProt P28335); assay: Inhibitory activity against 5HT2C receptor
T1 sequence (P28335 whole entry): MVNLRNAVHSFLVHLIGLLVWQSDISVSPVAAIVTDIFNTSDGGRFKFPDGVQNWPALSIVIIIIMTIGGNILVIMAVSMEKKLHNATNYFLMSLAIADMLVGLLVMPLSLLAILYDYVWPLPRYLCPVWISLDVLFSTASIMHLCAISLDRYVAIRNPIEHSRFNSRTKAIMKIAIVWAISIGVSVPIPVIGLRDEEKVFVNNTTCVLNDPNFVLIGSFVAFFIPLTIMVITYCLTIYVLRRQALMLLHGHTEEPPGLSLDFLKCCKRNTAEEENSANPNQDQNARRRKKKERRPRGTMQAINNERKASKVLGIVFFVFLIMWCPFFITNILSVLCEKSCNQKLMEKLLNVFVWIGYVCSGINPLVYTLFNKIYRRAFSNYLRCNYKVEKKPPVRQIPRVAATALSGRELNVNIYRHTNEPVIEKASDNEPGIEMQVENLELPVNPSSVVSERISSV

[2] = Oral bioavailability in rat at 10 mg/kg, po; assay type: ADME, organism-based; conditions: in vivo
[3] = molecular target: T2, 5-hydroxytryptamine receptor 1A (Rattus norvegicus, UniProt P19327); assay: Binding affinity for rat 5HT1A receptor
T2 sequence (P19327 whole entry): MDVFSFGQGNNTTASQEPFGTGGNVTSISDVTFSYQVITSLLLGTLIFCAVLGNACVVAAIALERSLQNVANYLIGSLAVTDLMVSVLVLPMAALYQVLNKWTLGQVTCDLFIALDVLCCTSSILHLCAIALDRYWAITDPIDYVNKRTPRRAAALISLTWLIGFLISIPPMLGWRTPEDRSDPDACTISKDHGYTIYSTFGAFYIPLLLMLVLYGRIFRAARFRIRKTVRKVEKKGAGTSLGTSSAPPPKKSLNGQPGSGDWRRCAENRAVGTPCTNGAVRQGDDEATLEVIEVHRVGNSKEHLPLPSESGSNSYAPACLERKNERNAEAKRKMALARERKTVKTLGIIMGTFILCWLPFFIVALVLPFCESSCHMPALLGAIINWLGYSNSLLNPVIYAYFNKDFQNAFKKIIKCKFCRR

With CN1CCc2c(sc3ncn(CCN4CCN(c5cncc6ccccc56)CC4)c(=O)c23)C1 the Ki [1] was greater than 10000 nM, the bioavailability [2] was 11% and the Ki [3] was 16.3 nM.

Source: ChEMBL document CHEMBL1141234, “Synthesis and SAR of highly potent dual 5-HT1A and 5-HT1B antagonists as potential antidepressant drugs” (Bioorg Med Chem Lett, 2005)
